In patent publication US10294229B2, “Heteroaryl substituted aminopyridine compounds” (BRISTOL-MYERS SQUIBB COMPANY, priority 2015, dated 2019):

Legend:
[1] = Caco-2 Permeability Assay; format: in vitro ADME; conditions: human, Caco-2, test compound 3 μM
Method in brief: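 Bidirectional permeability measured over 2 h at 37° C, compound dosed at 3 μM in the donor compartment (apical for absorptive, basolateral for secretive) with plain buffer as receiver.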

[2] = target: IRAK4 (Homo sapiens (Human), UniProt Q9NWZ3); assay: IRAK4 Inhibition Assay; format: biochemical; conditions: ATP 500 μM; IRAK4 0.6 nM
Sequence of IRAK4 (Q9NWZ3 whole entry, species assumed): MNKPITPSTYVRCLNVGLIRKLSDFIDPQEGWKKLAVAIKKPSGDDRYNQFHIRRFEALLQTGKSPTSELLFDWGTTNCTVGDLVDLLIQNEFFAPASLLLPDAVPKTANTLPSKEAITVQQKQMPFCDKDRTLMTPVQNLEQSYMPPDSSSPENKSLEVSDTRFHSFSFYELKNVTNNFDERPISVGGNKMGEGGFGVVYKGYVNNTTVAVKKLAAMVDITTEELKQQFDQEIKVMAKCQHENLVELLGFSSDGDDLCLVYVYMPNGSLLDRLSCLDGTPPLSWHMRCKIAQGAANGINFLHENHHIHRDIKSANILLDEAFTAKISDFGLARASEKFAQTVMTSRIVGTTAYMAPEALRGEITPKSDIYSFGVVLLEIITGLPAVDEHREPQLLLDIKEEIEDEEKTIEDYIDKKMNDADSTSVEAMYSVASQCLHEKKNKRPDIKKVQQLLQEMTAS
Method in brief: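 Enzyme 0.6 nM, ATP 500 μM, FL-peptide 1.5 μM, DMSO 1.6%; HEPES pH 7.2/MgCl2/Brij 35/DTT buffer. RT, 60 min, EDTA stop. Mobility-shift product/substrate ratio; % inhib vs no-enzyme and vehicle controls.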

[3] = system: Human whole blood stimulated with a TLR2 agonist (lipoteichoic acid), IL-6 levels; assay: IRAK4 Whole Blood Assay; format: cell-based; conditions: lipoteichoic acid 10 μg/mL
Method in brief: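 ACD-A-anticoagulated human whole blood was preincubated with compounds for 60 min at 37 °C under 5% CO2. It was then stimulated with 10 μg/mL lipoteichoic acid (final) in RPMI for 5 h. IL-6 in plasma supernatants was measured by flow cytometry bead assay.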

| Papp at 2 h, 3 µM [1] [×10⁻⁶ cm/s] | IC50 [2] [nM] | EC50 ([3]; Homo sapiens) [nM] | EC50 [3] [nM] | SMILES |
| --- | --- | --- | --- | --- |
| 27.7 | 4 | 300 | – | CC(C)(F)CCc1cn(-c2cnc(-n3ncc4cc(C#N)cnc43)cc2N[C@@H]2CCOC2)nn1 [Example 373, (R)-1-(5-(4-(3-fluoro-3-methylbutyl)-1H-1,2,3-triazol-1-yl)-4-((tetrahydrofuran-3-yl)amino)pyridin-2-yl)-1H-pyrazolo[3,4-b]pyridine-5-carbonitrile] |
| 7.4 | 3 | 200 | – | CC(C)Nc1cc(-n2ncc3cc(C#N)cnc32)ncc1-n1cc(CCC(C)(C)O)nn1 [Example 327, 1-(5-(4-(3-hydroxy-3-methylbutyl)-1H-1,2,3-triazol-1-yl)-4-(isopropylamino)pyridin-2-yl)-1H-pyrazolo[3,4-b]pyridine-5-carbonitrile] |
| 25 | 7 | 220 | – | CC(C)Nc1cc(-n2ncc3cc(C#N)cnc32)ncc1-n1cc(C2CCN(CC(F)F)CC2)nn1 [Example 336, 1-(5-(4-(1-(2,2-difluoroethyl)piperidin-4-yl)-1H-1,2,3-triazol-1-yl)-4-(isopropylamino)pyridin-2-yl)-1H-pyrazolo[3,4-b]pyridine-5-carbonitrile] |
| 48.7 | 7 | 240 | – | CC(C)Nc1cc(-n2ncc3cc(C#N)cnc32)ncc1-n1cc(C2CCOCC2)nn1 [Example 355, 1-(4-(isopropylamino)-5-(4-(tetrahydro-2H-pyran-4-yl)-1H-1,2,3-triazol-1-yl)pyridin-2-yl)-1H-pyrazolo[3,4-b]pyridine-5-carbonitrile] |
| < 1.5 | 2 | 160 | – | CC(C)Nc1cc(-n2ncc3cc(C#N)cnc32)ncc1-n1cc(CCC(C)(C)OC(=O)CN)nn1 [Example 378, 4-(1-(6-(5-cyano-1H-pyrazolo[3,4-b]pyridin-1-yl)-4-(isopropylamino)pyridin-3-yl)-1H-1,2,3-triazol-4-yl)-2-methylbutan-2-yl glycinate] |
| 24.8 | 4 | 200 | – | CC(C)Nc1cc(-n2ncc3cc(C#N)cnc32)ncc1-n1cc(C2CCN(C(=O)C(F)(F)F)CC2)nn1 [Example 386, 1-(4-(isopropylamino)-5-(4-(1-(2,2,2-trifluoroacetyl)piperidin-4-yl)-1H-1,2,3-triazol-1-yl)pyridin-2-yl)-1H-pyrazolo[3,4-b]pyridine-5-carbonitrile] |
| 15.6 | 6 | 330 | – | CC(C)(F)CCc1cn(-c2cnc(-n3ncc4cc(C#N)cnc43)cc2NC2COC2)nn1 [Example 363, 1-(5-(4-(3-fluoro-3-methylbutyl)-1H-1,2,3-triazol-1-yl)-4-(oxetan-3-ylamino)pyridin-2-yl)-1H-pyrazolo[3,4-b]pyridine-5-carbonitrile] |
| 6.8 | 1 | 300 | – | CC(C)(O)CCc1cn(-c2cnc(-n3ncc4cc(C#N)cnc43)cc2N[C@@H]2CCC[C@@H]2F)nn1 [Example 375, 1-(4-(((1R,2S)-2-fluorocyclopentyl)amino)-5-(4-(3-hydroxy-3-methylbutyl)-1H-1,2,3-triazol-1-yl)pyridin-2-yl)-1H-pyrazolo[3,4-b]pyridine-5-carbonitrile] |
| 19.3 | 5 | 1750 | – | CC(C)Nc1cc(-n2ncc3cc(C#N)cnc32)ncc1-c1cn(C(C)C)nn1 [Example 213, 1-(5-(1-isopropyl-1H-1,2,3-triazol-4-yl)-4-(isopropylamino)pyridin-2-yl)-1H-pyrazolo[3,4-b]pyridine-5-carbonitrile] |

The next lines start with the compound.

| SMILES | Papp at 2 h, 3 µM [1] [×10⁻⁶ cm/s] | IC50 [2] [nM] | EC50 ([3]; Homo sapiens) [nM] | EC50 [3] [nM] |
| --- | --- | --- | --- | --- |
| CC(C)Nc1cc(-n2ncc3cc(C#N)cnc32)ncc1-c1cn(CCc2ccncc2)nn1 [Example 120, 1-(4-(isopropylamino)-5-(1-(2-(pyridin-4-yl)ethyl)-1H-1,2,3-triazol-4-yl)pyridin-2-yl)-1H-pyrazolo[3,4-b]pyridine-5-carbonitrile] | 7.4 | 1 | 200 | – |
| CC(C)(O)CCC1CC(c2cnc(-n3ncc4cc(C#N)cnc43)cc2NCC(F)F)=NO1 (stereo not drawn) [Example 443, 1-(4-((2,2-difluoroethyl)amino)-5-(5-(3-hydroxy-3-methylbutyl)-4,5-dihydroisoxazol-3-yl)pyridin-2-yl)-1H-pyrazolo[3,4-b]pyridine-5-carbonitrile] | 14.1 | 2 | – | 390 |
| CCCn1cc(-c2cnc(-n3ncc4cc(C#N)c(N)nc43)cc2NC(C)C)nn1 [Example 33, 6-amino-1-(4-(isopropylamino)-5-(1-propyl-1H-1,2,3-triazol-4-yl)pyridin-2-yl)-1H-pyrazolo[3,4-b]pyridine-5-carbonitrile] | 16.7 | 3 | 3720 | – |
| CC(C)(O)CCc1cn(-c2cnc(-n3ncc4cc(C#N)cnc43)cc2NC2CCC(F)(F)C2)nn1 (single isomer, unassigned) [Example 347, 1-(4-((3,3-difluorocyclopentyl)amino)-5-(4-(3-hydroxy-3-methylbutyl)-1H-1,2,3-triazol-1-yl)pyridin-2-yl)-1H-pyrazolo[3,4-b]pyridine-5-carbonitrile] | 9.7 | 2 | 430 | – |
| CC(C)Nc1cc(-n2ncc3cc(C#N)cnc32)ncc1-c1cn(C2CCN(C)C2=O)nn1 (stereo not drawn) [Example 21, 1-(4-(isopropylamino)-5-(1-(1-methyl-2-oxopyrrolidin-3-yl)-1H-1,2,3-triazol-4-yl)pyridin-2-yl)-1H-pyrazolo[3,4-b]pyridine-5-carbonitrile] | 4.2 | 4 | 320 | – |
| CC(C)Nc1cc(-n2ccc3cc(C#N)cnc32)ncc1-c1cn(CCN2CCOCC2)nn1 [Example 163, 1-(4-(isopropylamino)-5-(1-(2-morpholinoethyl)-1H-1,2,3-triazol-4-yl)pyridin-2-yl)-1H-pyrrolo[2,3-b]pyridine-5-carbonitrile, 2TFA] | 19.5 | 2 | 600 | – |
| CC(C)Nc1cc(-n2ncc3cc(C#N)cnc32)ncc1-c1cc([C@H]2C[C@@H](O)CCN2)no1 [Example 425, 1-(5-(3-((2R,4S)-4-hydroxypiperidin-2-yl)isoxazol-5-yl)-4-(isopropylamino)pyridin-2-yl)-1H-pyrazolo[3,4-b]pyridine-5-carbonitrile] | < 1.5 | 9 | 140 | – |
| CCCc1cn(-c2cnc(-n3ncc4cc(C#N)cnc43)cc2Nc2cnn(CC(F)F)c2)nn1 [Example 269, 1-(4-((1-(2,2-difluoroethyl)-1H-pyrazol-4-yl)amino)-5-(4-propyl-1H-1,2,3-triazol-1-yl)pyridin-2-yl)-1H-pyrazolo[3,4-b]pyridine-5-carbonitrile] | 3.8 | 4 | 390 | – |
| CCNc1cc(-n2ncc3cc(C#N)cnc32)ncc1-n1cc(CCC(C)(C)O)nn1 [Example 369, 1-(4-(ethylamino)-5-(4-(3-hydroxy-3-methylbutyl)-1H-1,2,3-triazol-1-yl)pyridin-2-yl)-1H-pyrazolo[3,4-b]pyridine-5-carbonitrile] | 6.7 | 7 | 270 | – |
| CC(C)(O)CCc1cn(-c2cnc(-n3ncc4cc(C#N)cnc43)cc2N[C@H]2CC[C@H](F)C2)nn1 [Example 368, 1-(4-(((1S,3S)-3-fluorocyclopentyl)amino)-5-(4-(3-hydroxy-3-methylbutyl)-1H-1,2,3-triazol-1-yl)pyridin-2-yl)-1H-pyrazolo[3,4-b]pyridine-5-carbonitrile] | 3.2 | 3 | 180 | – |
| N#Cc1cnc2c(cnn2-c2cc(NC3CC3)c(-c3cn(CCO)nn3)cn2)c1 [Example 14, 1-(4-(cyclopropylamino)-5-(1-(2-hydroxyethyl)-1H-1,2,3-triazol-4-yl)pyridin-2-yl)-1H-pyrazolo[3,4-b]pyridine-5-carbonitrile] | 4.1 | 3 | 490 | – |
| CCNc1cc(-n2ncc3cc(C#N)cnc32)ncc1C1=NOC(CCC(C)(C)O)C1 (stereo not drawn) [Example 440, 1-(4-(ethylamino)-5-(5-(3-hydroxy-3-methylbutyl)-4,5-dihydroisoxazol-3-yl)pyridin-2-yl)-1H-pyrazolo[3,4-b]pyridine-5-carbonitrile] | 31.6 | 4 | 280 | – |
| CC(C)Nc1cc(-n2ncc3cc(C#N)cnc32)ncc1-c1cn(CC2CC2(F)F)nn1 (single isomer, unassigned) [Example 31, 1-(5-(1-((2,2-difluorocyclopropyl)methyl)-1H-1,2,3-triazol-4-yl)-4-(isopropylamino)pyridin-2-yl)-1H-pyrazolo[3,4-b]pyridine-5-carbonitrile] | 15.9 | 7 | – | 1970 |
| Cc1n[nH]c(C)c1CCn1cc(-c2cnc(-n3ncc4cc(C#N)cnc43)cc2NC(C)C)nn1 [Example 102, 1-(5-(1-(2-(3,5-dimethyl-1H-pyrazol-4-yl)ethyl)-1H-1,2,3-triazol-4-yl)-4-(isopropylamino)pyridin-2-yl)-1H-pyrazolo[3,4-b]pyridine-5-carbonitrile] | < 1.5 | 4 | 1110 | – |
| CC(C)Nc1cc(-n2ccc3cncnc32)ncc1-c1cn([C@H]2CCNC[C@H]2O)nn1 [Example 6, (3R,4S)-4-(4-(4-(isopropylamino)-6-(7H-pyrrolo[2,3-d]pyrimidin-7-yl)pyridin-3-yl)-1H-1,2,3-triazol-1-yl)piperidin-3-ol] | 1.7 | 5 | 1450 | – |
